This is an account of results in US6562791B1, “Glucopyranoside, process for isolation thereof, pharmaceutical composition containing same and use thereof” (Council of Scientific and Industrial Research, priority 2002, dated 2003).

The test deals with 18 hour fasted Wistar rats. The test can be described thus: hypoglycaemic activity in 18 hour fasted Wistar rats. In kind it is in vivo. The note with it: for mean fall (blood glucose): compound at 15 mg/kg p.o., chlorpropamide positive control, dose not given. On the procedure: The compound was evaluated for hypoglycaemic activity in 18 hour fasted Wistar rats. […] The mean fall recorded was 24 mg/100 ml blood, from an initial mean of 91 to mean of 67 mg/100 ml blood.

As to `CCCNC(=O)NS(=O)(=O)c1ccc(Cl)cc1` [chlorpropamide, reference compound], the “mean fall (blood glucose)” value turned out to be 18 mg/100 ml blood.

On to `OC[C@H]1O[C@@H](c2c(O)ccc3cc(Cc4ccc(O)cc4)oc23)[C@H](O)[C@@H](O)[C@@H]1O` [formula 1, 6-hydroxy-2-p-hydroxybenzylbenzofuran-7-C-β-D-glucopyranoside], for which the “mean fall (blood glucose)” value was determined as 24 mg/100 ml blood. Besides, the hypoglycaemic effect entry (15 mg/kg p.o.) is reported as “hypoglycaemic effect was recorded in all the treated rats”. In addition, the “mean blood level after treatment” value (15 mg/kg p.o., after treatment) worked out at 67 mg/100 ml blood. Moreover, under “initial value of the treated group”, the “initial mean blood level” value amounted to 91 mg/100 ml blood.
